Assay results taken from ChEMBL document CHEMBL1201862, “PubChem BioAssay data set” (2004).
Calls of active or inactive are those of the source.

What was measured:
[1] = target: T1, Calpain-2 catalytic subunit (Sus scrofa, UniProt P43367); experiment: m-calpain protease blockers, concentration series – biochemical, fluorogenic peptide substrate, dose response (AID 1420); type: functional
T1 sequence (P43367 whole entry): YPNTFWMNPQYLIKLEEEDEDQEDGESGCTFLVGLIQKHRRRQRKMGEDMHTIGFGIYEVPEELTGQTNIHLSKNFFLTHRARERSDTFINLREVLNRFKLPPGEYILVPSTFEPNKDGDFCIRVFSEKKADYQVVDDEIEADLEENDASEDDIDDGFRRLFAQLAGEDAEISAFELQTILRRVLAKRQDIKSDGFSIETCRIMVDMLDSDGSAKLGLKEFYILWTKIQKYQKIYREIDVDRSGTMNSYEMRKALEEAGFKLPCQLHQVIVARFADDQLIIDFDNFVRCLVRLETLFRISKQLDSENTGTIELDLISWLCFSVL

Leucine aminopeptidase = target: T2, Leucine aminopeptidase (Plasmodium falciparum 3D7, UniProt Q8IL11); experiment: P. falciparum M17LAP inhibitors, primary screen, biochemical, fluorogenic H-Leu-NHMec substrate, 1536-well (AID 1619); type: functional
T2 sequence (Q8IL11 whole entry): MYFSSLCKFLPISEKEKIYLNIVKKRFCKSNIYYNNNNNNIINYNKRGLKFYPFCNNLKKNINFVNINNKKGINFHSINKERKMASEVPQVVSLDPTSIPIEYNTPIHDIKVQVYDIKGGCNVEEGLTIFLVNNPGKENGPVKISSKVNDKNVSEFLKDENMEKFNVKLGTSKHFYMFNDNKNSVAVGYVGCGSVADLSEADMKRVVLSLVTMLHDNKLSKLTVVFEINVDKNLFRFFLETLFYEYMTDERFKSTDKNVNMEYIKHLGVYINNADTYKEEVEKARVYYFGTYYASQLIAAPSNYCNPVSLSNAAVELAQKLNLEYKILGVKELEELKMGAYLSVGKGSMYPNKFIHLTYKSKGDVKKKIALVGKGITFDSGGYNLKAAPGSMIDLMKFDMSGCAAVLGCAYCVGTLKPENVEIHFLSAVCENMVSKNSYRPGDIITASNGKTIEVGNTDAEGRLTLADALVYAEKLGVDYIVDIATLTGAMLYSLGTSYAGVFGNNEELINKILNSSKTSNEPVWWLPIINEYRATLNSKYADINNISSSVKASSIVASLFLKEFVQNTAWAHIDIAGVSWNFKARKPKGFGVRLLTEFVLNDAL

Cytochrome P450 2C19 = Cytochrome P450 2C19 (Homo sapiens, UniProt P33261); experiment: Cytochrome panel assay with activity outcomes. Panel member name: p450-cyp2c19 Compounds with AC50 equal or less than 10 uM are considered active; type: functional; conditions: read-out: AC50
Streptokinase A = target: T3, Streptokinase A (Streptococcus pyogenes serotype M1, UniProt P10520); experiment: viability-normalized secreted streptokinase activity reduction – plasminogen activation absorbance, OD405, dose response (AID 1914); type: functional, Streptococcus pyogenes M1 GAS;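 also: secreted streptokinase activity via plasminogen activation per viability signal from cell pellet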
T3 sequence (P10520 whole entry): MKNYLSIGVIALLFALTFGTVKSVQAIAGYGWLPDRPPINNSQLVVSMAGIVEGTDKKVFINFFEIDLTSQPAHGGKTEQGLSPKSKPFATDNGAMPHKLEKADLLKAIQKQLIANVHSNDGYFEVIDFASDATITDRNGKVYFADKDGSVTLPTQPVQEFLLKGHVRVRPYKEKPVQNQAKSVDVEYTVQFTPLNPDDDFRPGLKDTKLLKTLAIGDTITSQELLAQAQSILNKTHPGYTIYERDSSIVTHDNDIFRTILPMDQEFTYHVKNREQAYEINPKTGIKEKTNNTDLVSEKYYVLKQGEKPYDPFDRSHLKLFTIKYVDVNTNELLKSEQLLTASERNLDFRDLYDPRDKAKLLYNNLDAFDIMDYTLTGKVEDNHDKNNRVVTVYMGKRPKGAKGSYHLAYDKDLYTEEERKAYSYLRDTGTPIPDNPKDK

[2] = viability of HCT116 lacking mutant beta-catenin – cell-based, human colon tumor, dose response (AID 1045); type: functional;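 also: HCT116 colon tumor cells with beta catenin knocked out; cells exposed to compound for 60 hours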
[3] = tested on: Streptococcus sp. 'group A'; experiment: Streptococcus pyogenes SK(-)GAS viability under kanamycin – luminescence, BacTiterGlo, confirmation, counter-screen for streptokinase expression inhibitor project, dose response (AID 1900); type: functional, organism-based
[4] = viability of PTEN-deleted HCT116 cells – cell-based, HCT116 PTEN knockout, dose response (AID 1047); type: functional;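 also: HCT116 colon tumor cells with PTEN knocked out; cells exposed to compound for 60 hours before readout; potency for loss of cell viability measured by luminescence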
Streptococcus = experiment: GAS UMAA2166 growth inhibition – luminescence, BacTiterGlo, counter-screen for streptokinase expression inhibitor project, dose response (AID 1915); type: functional, organism-based;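 also: potency for reduction of bacterial viability or growth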
Cytochrome P450 2D6 = Cytochrome P450 2D6 (Homo sapiens, UniProt P10635);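 also: CYP2D6 member of a cytochrome P450 panel assay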
Large T antigen = Large T antigen (Simian virus 40, UniProt P03070); type: functional, Betapolyomavirus macacae;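 also: Confirmatory-stage PubChem screen for compounds that inhibit SV40 T antigen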
Nonstructural protein 1 = Nonstructural protein 1 (Influenza A virus, UniProt Q194T2); type: functional, Influenza A virus (A/California/07/2009(H1N1))
[5] = target: T4, RNA-binding protein pos-1 (Caenorhabditis elegans, UniProt G5EF15); experiment: disruptors of C. elegans POS-1 RNA interaction – biochemical, fluorescence polarization, dose response (AID 1964);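 also: purified POS-1 fused to maltose binding protein made in E. coli; potency of compounds blocking POS-1 binding to fluorescent RNA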
T4 sequence (G5EF15 whole entry): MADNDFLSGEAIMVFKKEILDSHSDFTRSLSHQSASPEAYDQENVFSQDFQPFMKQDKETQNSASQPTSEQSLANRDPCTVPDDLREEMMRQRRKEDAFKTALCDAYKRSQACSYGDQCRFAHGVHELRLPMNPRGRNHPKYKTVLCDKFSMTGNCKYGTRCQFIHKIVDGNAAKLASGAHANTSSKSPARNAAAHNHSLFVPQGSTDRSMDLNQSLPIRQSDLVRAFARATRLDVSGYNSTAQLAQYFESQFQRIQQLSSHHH

[6] = Trypanosoma cruzi growth suppression in host cells – NIH3T3 host cells, beta-gal luminescence, confirmation (AID 2044); type: functional, cell-based;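 also: intracellular parasites grown in NIH/3T3 mouse fibroblasts as host cells; luminescent beta-galactosidase reporter signal from transgenic T. cruzi replicating inside host cells; inhibitors lower the luminescence signal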
[7] = target: T5, Zinc finger protein mex-5 (Caenorhabditis elegans, UniProt Q9XUB2); experiment: potency of MEX-5 RNA-binding blockers – biochemical, C. elegans, fluorescence polarization, dose response (AID 1960)
T5 sequence (Q9XUB2 whole entry): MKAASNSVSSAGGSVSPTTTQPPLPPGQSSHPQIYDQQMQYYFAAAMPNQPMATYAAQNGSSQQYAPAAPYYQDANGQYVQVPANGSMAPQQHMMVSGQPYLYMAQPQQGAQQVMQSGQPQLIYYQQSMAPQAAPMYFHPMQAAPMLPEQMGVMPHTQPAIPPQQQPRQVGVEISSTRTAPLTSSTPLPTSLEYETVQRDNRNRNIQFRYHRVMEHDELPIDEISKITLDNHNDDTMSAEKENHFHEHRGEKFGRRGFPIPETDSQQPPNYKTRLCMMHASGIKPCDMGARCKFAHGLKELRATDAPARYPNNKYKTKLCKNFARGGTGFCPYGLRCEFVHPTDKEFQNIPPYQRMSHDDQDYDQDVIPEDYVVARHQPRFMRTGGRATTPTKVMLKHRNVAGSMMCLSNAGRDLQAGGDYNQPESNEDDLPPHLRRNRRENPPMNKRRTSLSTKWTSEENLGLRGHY

Protein skinhead-1 = target: T6, Protein skinhead-1 (Caenorhabditis elegans, UniProt P34707); type: functional
T6 sequence (P34707 whole entry): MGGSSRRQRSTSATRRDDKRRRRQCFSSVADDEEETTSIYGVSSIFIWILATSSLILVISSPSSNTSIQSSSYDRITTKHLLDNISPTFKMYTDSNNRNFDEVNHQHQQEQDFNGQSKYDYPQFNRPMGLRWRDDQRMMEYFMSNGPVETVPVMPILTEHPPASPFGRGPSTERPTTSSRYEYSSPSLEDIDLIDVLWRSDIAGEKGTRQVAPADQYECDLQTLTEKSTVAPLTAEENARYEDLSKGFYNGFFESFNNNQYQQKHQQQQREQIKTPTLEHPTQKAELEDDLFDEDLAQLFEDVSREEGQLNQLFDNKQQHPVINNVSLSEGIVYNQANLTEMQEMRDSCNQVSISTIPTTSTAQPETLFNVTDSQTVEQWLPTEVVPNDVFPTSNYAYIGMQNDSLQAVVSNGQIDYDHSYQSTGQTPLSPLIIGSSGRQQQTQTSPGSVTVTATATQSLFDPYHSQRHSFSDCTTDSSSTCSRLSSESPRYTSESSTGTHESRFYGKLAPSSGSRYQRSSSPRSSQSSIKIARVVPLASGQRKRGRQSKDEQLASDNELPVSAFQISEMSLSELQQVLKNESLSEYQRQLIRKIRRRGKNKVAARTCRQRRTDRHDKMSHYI

[8] = NIH3T3 cell viability loss – ATP luminescence, mouse fibroblasts, counter-screen, dose response (AID 2010); type: functional, cell-based;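 also: cells exposed to compound for about 90 hours before reading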
[9] = target: FAD-linked sulfhydryl oxidase ALR (Homo sapiens, UniProt P55789); experiment: ALR-catalysed DTT oxidation blockers – biochemical, H2O2 detection, luminescence, cherry-pick, dose response (AID 493248)
Sequence of FAD-linked sulfhydryl oxidase ALR (P55789 whole entry): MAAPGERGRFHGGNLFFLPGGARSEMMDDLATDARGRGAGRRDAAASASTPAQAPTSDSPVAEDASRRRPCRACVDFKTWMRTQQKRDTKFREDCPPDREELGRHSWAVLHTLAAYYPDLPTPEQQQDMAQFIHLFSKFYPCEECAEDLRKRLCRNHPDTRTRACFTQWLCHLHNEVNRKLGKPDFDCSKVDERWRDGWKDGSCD

Sequence of Large T antigen (P03070 whole entry): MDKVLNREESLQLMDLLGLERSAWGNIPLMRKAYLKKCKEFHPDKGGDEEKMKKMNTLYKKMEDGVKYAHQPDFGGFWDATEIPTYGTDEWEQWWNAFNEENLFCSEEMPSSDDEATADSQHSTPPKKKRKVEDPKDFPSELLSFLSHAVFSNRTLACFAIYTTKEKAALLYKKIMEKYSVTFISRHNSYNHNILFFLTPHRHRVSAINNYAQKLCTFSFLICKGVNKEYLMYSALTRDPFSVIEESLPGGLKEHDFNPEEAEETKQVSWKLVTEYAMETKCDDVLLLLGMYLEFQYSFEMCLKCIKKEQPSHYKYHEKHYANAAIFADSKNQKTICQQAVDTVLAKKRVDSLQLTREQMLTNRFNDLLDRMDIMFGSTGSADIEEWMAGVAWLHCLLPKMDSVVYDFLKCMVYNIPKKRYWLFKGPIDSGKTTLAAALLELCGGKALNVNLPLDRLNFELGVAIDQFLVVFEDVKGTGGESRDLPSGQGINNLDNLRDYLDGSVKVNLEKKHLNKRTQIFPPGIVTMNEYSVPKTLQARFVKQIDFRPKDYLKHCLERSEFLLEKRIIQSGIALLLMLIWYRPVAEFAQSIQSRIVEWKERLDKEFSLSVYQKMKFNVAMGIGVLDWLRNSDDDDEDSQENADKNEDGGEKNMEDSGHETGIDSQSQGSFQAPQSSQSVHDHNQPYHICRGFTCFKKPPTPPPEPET
Sequence of Cytochrome P450 2C19 (P33261 whole entry): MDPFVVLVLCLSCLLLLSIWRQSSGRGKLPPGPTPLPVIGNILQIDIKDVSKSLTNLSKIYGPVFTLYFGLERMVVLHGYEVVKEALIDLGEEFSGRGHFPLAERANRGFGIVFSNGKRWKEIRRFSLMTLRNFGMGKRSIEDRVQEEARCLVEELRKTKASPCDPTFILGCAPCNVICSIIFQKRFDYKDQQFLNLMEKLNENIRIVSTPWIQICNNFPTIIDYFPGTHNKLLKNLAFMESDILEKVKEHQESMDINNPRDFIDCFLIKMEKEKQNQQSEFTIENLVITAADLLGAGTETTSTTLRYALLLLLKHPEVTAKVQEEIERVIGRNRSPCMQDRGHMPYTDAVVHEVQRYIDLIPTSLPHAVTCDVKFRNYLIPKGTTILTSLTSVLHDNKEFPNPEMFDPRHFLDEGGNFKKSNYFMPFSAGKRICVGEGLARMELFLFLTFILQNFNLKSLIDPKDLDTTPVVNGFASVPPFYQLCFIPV
Sequence of Nonstructural protein 1 (Q194T2 whole entry, the tested form may be a part): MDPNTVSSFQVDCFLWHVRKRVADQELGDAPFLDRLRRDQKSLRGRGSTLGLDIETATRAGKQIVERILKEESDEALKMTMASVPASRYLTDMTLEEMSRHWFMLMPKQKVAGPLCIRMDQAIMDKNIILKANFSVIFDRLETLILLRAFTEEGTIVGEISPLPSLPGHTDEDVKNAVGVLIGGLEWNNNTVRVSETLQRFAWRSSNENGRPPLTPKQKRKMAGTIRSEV
Sequence of Cytochrome P450 2D6 (P10635 whole entry): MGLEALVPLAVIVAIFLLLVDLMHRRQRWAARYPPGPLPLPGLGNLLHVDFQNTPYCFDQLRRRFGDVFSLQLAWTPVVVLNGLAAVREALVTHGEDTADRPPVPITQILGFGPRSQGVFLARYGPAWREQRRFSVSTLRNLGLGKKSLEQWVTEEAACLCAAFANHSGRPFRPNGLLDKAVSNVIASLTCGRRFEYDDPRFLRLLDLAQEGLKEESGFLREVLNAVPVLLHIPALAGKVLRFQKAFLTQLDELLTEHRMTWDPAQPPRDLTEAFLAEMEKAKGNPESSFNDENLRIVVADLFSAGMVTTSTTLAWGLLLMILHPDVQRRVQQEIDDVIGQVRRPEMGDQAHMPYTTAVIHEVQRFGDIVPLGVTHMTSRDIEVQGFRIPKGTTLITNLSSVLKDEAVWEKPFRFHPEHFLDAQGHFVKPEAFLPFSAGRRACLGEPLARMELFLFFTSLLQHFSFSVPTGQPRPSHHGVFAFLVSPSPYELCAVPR

SMILES	IC50 [1]	IC50 (Leucine aminopeptidase)	also measured
O=C(CCCOc1ccc(Cl)cc1Cl)N1CCc2ccccc2C1	7.32 µM (not active)	–	–
O=C(CN1C(=O)c2ccccc2S1(=O)=O)NC1CC2CCC1C2 (stereo not drawn)	–	75.4 µM (active)	–
O=C(CSc1nc[nH]n1)Nc1nnc(-c2ccccc2)s1	–	43.1 µM (active)	–
CCOC(=O)c1c(NC(=O)C2C3CCC(O3)C2C(=O)O)sc(C)c1-c1ccc(F)cc1 (stereo not drawn)	–	8.78 µM (active)	–
c1nc(NCc2ccc3c(c2)OCO3)n[nH]1	–	17.9 µM (active)	–
CN(C)c1ncc(S(=O)(=O)c2ccc(Cl)cc2)c(-c2ccccc2)n1	8.73 µM (not active)	–	–
CC(C)c1ccc(CNc2ccc([N+](=O)[O-])cn2)cc1	6.03 µM (active)	–	–
Cc1cc(C)nc(NS(=O)(=O)c2ccc(N/C=C3\CCCC3=O)cc2)n1	–	56.7 µM (active)	–
COCCSc1nnc(NC(=O)c2cc(C(=O)OC)cc([N+](=O)[O-])c2)s1	–	60.2 µM (active)	–
O=C(O)C1CCCCC1C(=O)Nc1cc(Cl)ccc1Cl (stereo not drawn)	–	25 µM (active)	AC50 (Cytochrome P450 2C19): 25.1 µM (inconclusive)
CC(C)C[C@H](NC(=O)c1[nH]cnc1C(=O)N[C@@H](CCCCNC(=O)OC(C)(C)C)C(=O)OC(C)(C)C)C(=O)OC(C)(C)C	3.89 µM (not active)	–	–
CC(C)NC(=O)NC(=O)CSc1nnc(COc2ccccc2F)n1C(C)C1CC2CCC1C2 (stereo not drawn)	–	–	EC50 (Streptokinase A): 16.8 µM (active); EC50 [2]: 20.8 µM (active); EC50 [3]: 5.26 µM (active); EC50 [4]: 19 µM (active); EC50 (Streptococcus): > 150 µM (not active)
CCN(CC)c1ccc(NC(=O)CSc2ccsc2[N+](=O)[O-])c(C)c1	–	1.9 µM (active)	–
O=C(NCC1COc2ccccc2O1)C1C2C=CC3(CN(Cc4cccs4)C(=O)C13)O2 (stereo not drawn)	–	7.96 µM (active)	–
N#CCOc1nc(N2CCCC2)nc(N2CCCC2)n1	14.3 µM (not active)	–	–
O=C(CN=C(S)N(Cc1ccccc1)Cc1cccs1)NCc1ccc(F)cc1	9.61 µM (not active)	–	–
COc1ccc(N2CCN(C(CNC(=O)C3CCCCC3)c3cccnc3)CC2)cc1 (stereo not drawn)	–	–	AC50 (Cytochrome P450 2D6): 0.355 µM (inconclusive); IC50 (Large T antigen): 27 µM (active); AC50 (Cytochrome P450 2C19): 7.08 µM (inconclusive)
Cc1c(NN=C2C(=O)NC(=S)NC2=O)c(=O)n(-c2ccccc2)n1C	–	–	IC50 (Nonstructural protein 1): 2.77 µM (active)
COC(=O)c1c(C)oc(C)c1S(=O)(=O)Nc1ccc(C(C)C)cc1	11.4 µM (not active)	–	–
Fc1ccc(CNc2nc(-c3ccccc3)nc3ccccc23)cc1	6.57 µM (not active)	–	EC50 [5]: > 300 µM (not active); EC50 [6]: 0.107 µM (active); EC50 [7]: > 300 µM (not active); IC50 (Protein skinhead-1): 32.9 µM (active); EC50 [8]: > 30 µM (not active)
Nc1nnnn1CC(=O)N/N=C/c1cc([N+](=O)[O-])ccc1O	–	–	IC50 (Nonstructural protein 1): 3.13 µM (active)
COc1ccccc1/C=C/C=N/NC(=O)CCC1C(=O)NN=C1C (stereo not drawn)	–	57.2 µM (active)	–
CCOc1cc(C(=O)N/N=C\c2cn(CC)nc2C)cc(OCC)c1OCC	> 50 µM (not active)	–	–
COc1cc(/C=N/Nc2ccccn2)ccc1O	–	–	IC50 (Large T antigen): 5.41 µM (active)
COc1cc(/C=N/NS(=O)(=O)c2ccc(Br)cc2)ccc1O	–	–	AC50 [9]: 1.7 µM (active); IC50 (Large T antigen): 19.4 µM (active)
